{"source": "patent US10087176B2", "about": "“3,5-dichloro,4-(3,4-(cyclo-)alkoxyphenyl)--2-carbonyloxy)ethyl)pyridine derivatives as PDE-4 inhibitors” (Chiesi Farmaceutici S.p.A., priority 2014, dated 2018)", "origin": "cited, not measured here", "key": {"[1]": {"tested_on": "neutrophils and CXCL8 in sputum", "details": "COPD patients, oral, given over 4 weeks"}, "[2]": {"tested_on": "lung inflammation and emphysema", "details": "smoking model of COPD in mice"}, "[3]": {"details": "patients with severe disease, frequent exacerbations and mucus hypersecretion"}}}
{"smiles": "O=C(Nc1c(Cl)cncc1Cl)c1ccc(OC(F)F)c(OCC2CC2)c1", "note": "[roflumilast]", "values": [{"measurement": "effect on CXCL8 concentrations in sputum", "setting": "[1]", "value": "significantly reduces"}, {"measurement": "reduction of numbers of neutrophils in sputum", "setting": "[1]", "value": 36, "unit": "%"}, {"measurement": "effect on lung inflammation and emphysema", "setting": "[2]", "value": "inhibits lung inflammation and emphysema"}, {"measurement": "improvement of FEV 1", "setting": "[3]", "value": "approximately 50 ml"}, {"measurement": "reduction of exacerbation", "setting": "[3]", "value": "about 15%"}]}
